# In PubChem BioAssay AID651630 (Sanford-Burnham Center for Chemical Genomics, 2012):
# Calls of active or inactive are those of the source.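 The calls were made as follows: active = lipid-stain IC50 at or below a set limit, with nuclear-stain toxicity IC50 at least five times higher; inactive = the rest.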
# Assays:
# TAG = assay: triacylglycerol accumulation inhibitor potency, dose response, cell-based, panel, Nile Red and DAPI fluorescence, H9c2 (AID 651630); conditions: H9c2 cells, Nile Red TAG fluorescence, oleic acid;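 also: cells exposed to compound overnight before fixation and staining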
# DAPI = assay: as above; conditions: H9c2 cells, DAPI nuclear fluorescence (cytotoxicity counter-readout), oleic acid
SMILES,IC50 (TAG; mean of runs),IC50 (TAG; run 1),IC50 (TAG; run 2),IC50 cytotoxicity (DAPI nuclear signal decrease) (DAPI; mean of runs),IC50 cytotoxicity (DAPI nuclear signal decrease) (DAPI; run 1),IC50 cytotoxicity (DAPI nuclear signal decrease) (DAPI; run 2)
CCCc1cc(N2CCCC2)n2nc(C)c(-c3ccccc3)c2n1,> 25 µM (inactive),> 25 µM,> 25 µM,> 25 µM (inactive),> 25 µM,> 25 µM
COc1cc2c3c(cccc3c1)C(=O)N(CCN1CCCC1)C2=O,7.94 µM,8.07 µM,7.8 µM,> 25 µM (inactive),> 25 µM,> 25 µM
Cc1ccc(/C=N/NC(=O)c2c(C)nc3ccc(Br)cn23)cc1,> 25 µM (inactive),> 25 µM,> 25 µM,> 25 µM (inactive),> 25 µM,> 25 µM
CC(C)(C)c1cc(NCc2ccccn2)n2ncc(-c3ccc(Cl)cc3)c2n1,> 25 µM (inactive),> 25 µM,> 25 µM,> 25 µM (inactive),> 25 µM,> 25 µM
COc1ccc(NC(=O)O[C@@H](C)[C@@H]2CN3CCc4c([nH]c5ccc(-c6ccc(OC)cc6)cc45)[C@@H]3C[C@@H]2N(C)C(=O)Nc2ccc(OC)cc2)cc1,8.04 µM,7.66 µM,8.42 µM,> 25 µM (inactive),> 25 µM,> 25 µM
COc1ccc(Nc2cc(=O)oc3ccccc23)cc1,> 25 µM (inactive),> 25 µM,> 25 µM,> 25 µM (inactive),> 25 µM,> 25 µM
CCN(CC)CCCN(C(=O)c1cccs1)c1nc(-c2ccc(OC)cc2)cs1,10.3 µM,10.5 µM,10 µM,> 25 µM (inactive),> 25 µM,> 25 µM
Cc1ccc(CC2(OCCN(C)C)CCC(C(C)(C)C)CC2)cc1 (stereo unspecified),> 25 µM (inactive),> 25 µM,> 25 µM,23.5 µM (inactive),23.2 µM,23.8 µM
CCCCCCC(C)(C)c1ccc([C@@H]2C[C@H](O)CC[C@H]2CCCO)c(O)c1,9.3 µM,7.71 µM,10.9 µM,22 µM (inactive),23.7 µM,20.2 µM
Nc1cc2c(cc1Br)[nH]c(=O)c1ccccc12,8.3 µM,8.66 µM,7.94 µM,> 25 µM (inactive),> 25 µM,> 25 µM
CCOC(=O)c1c(C)[nH]c(C(=O)OCC(=O)NCCc2ccc(OCC)c(OCC)c2)c1C,> 25 µM (inactive),> 25 µM,> 25 µM,> 25 µM (inactive),> 25 µM,> 25 µM
Clc1cccc(Nc2nc(-c3ccncc3)nc3ccccc23)c1,–,18.9 µM,> 25 µM,> 25 µM (inactive),> 25 µM,> 25 µM
NC(=O)c1cccc(-c2ccnc3c2CC(C(=O)NCc2ccccc2)O3)c1 (stereo unspecified),> 25 µM (inactive),> 25 µM,> 25 µM,> 25 µM (inactive),> 25 µM,> 25 µM
Cc1cc(N/N=C/c2ccc(F)cc2)nc(-n2nc(C)cc2C)n1,> 25 µM (inactive),> 25 µM,> 25 µM,> 25 µM (inactive),> 25 µM,> 25 µM
COC(=O)[C@@]1(Cc2ccccc2)[C@H]2C(=O)N(Cc3ccccc3)C(=O)[C@H]2[C@H]2CN=C(SCc3ccc(Cl)cc3)N21,9.75 µM,10.4 µM,9.1 µM,> 25 µM (inactive),> 25 µM,> 25 µM
Cc1cc(N2CCOCC2)n2nc(C)c(-c3ccccc3)c2n1,–,14.6 µM,> 25 µM,> 25 µM (inactive),> 25 µM,> 25 µM
CN(C)CCNC(=O)C(=O)Nc1ccc2c(c1)N(S(=O)(=O)c1cccs1)CCC2,> 25 µM (inactive),> 25 µM,> 25 µM,> 25 µM (inactive),> 25 µM,> 25 µM

SMILES,IC50 (TAG; mean of runs),IC50 (TAG; run 1),IC50 (TAG; run 2),IC50 cytotoxicity (DAPI nuclear signal decrease) (DAPI; mean of runs),IC50 cytotoxicity (DAPI nuclear signal decrease) (DAPI; run 1),IC50 cytotoxicity (DAPI nuclear signal decrease) (DAPI; run 2)
Cc1ccc(CN(C)C(=O)CN2C(=O)NC3(CCCc4ccccc43)C2=O)c(C)c1 (stereo unspecified),–,21.7 µM,> 25 µM,> 25 µM (inactive),> 25 µM,> 25 µM
O=C1COc2ccc(C(=O)CSc3nc4ccccc4c(=O)n3-c3ccc(Cl)c(Cl)c3)cc2N1,13.8 µM,14.1 µM,13.4 µM,18.1 µM (inactive),18.4 µM,17.8 µM
C=CC[C@@H](CC(=O)N(CCO)Cc1ccccc1)C(=O)N[C@@H](COC(=O)[C@@H](CC=C)Cc1ccc(F)cc1)Cc1ccccc1,9.33 µM,8.74 µM,9.91 µM,> 25 µM (inactive),> 25 µM,> 25 µM
CN(C)CCCn1c(=O)n(CCc2ccccc2)c(=O)c2c3c(sc21)CCCCC3,> 25 µM (inactive),> 25 µM,> 25 µM,–,> 25 µM,16.2 µM
COc1cc(OC)cc(C(=O)N2CC(=O)Nc3ccccc32)c1,> 25 µM (inactive),> 25 µM,> 25 µM,> 25 µM (inactive),> 25 µM,> 25 µM
CN(C)CCCn1c(=O)n(C2CCCCC2)c(=O)c2c3c(sc21)CCCCC3,> 25 µM (inactive),> 25 µM,> 25 µM,> 25 µM (inactive),> 25 µM,> 25 µM
CNC(=O)c1ccc(-c2sc3nc(N4CCOCC4)c4c(c3c2N)CC(C)(C)OC4)o1,9.7 µM,13.1 µM,6.33 µM,> 25 µM (inactive),> 25 µM,> 25 µM
C[C@H]1CN([C@@H](C)CO)C(=O)Cc2cc(NC(=O)CCC(F)(F)F)ccc2O[C@H]1CN(C)S(=O)(=O)c1ccc(Cl)cc1,> 25 µM (inactive),> 25 µM,> 25 µM,> 25 µM (inactive),> 25 µM,> 25 µM
COc1ccc(-c2cc(C(F)F)n3ncc(C(=O)Nc4cccc(S(=O)(=O)N5CCOCC5)c4)c3n2)cc1,13.9 µM,17.5 µM,10.4 µM,> 25 µM (inactive),> 25 µM,> 25 µM
COc1cc2c(cc1[N+](=O)[O-])-c1ccc([N+](=O)[O-])cc1C2=NNC(N)=S,> 25 µM (inactive),> 25 µM,> 25 µM,> 25 µM (inactive),> 25 µM,> 25 µM
c1ccc(Oc2nc(-c3ccccn3)nc3ccccc23)cc1,> 25 µM (inactive),> 25 µM,> 25 µM,> 25 µM (inactive),> 25 µM,> 25 µM
COc1cc(C#Cc2c(-c3cncn3C)n(C)c3ccc(-c4ccc5[nH]ccc5c4)cc23)cc(OC)c1,4.19 µM,3.78 µM,4.6 µM,–,> 25 µM,> 25 µM
CSc1ccc(C2=C/C(=C3/SC(=S)NC3=O)c3ccccc3O2)cc1,14.6 µM,11.8 µM,17.3 µM,> 25 µM (inactive),> 25 µM,> 25 µM
COc1ccc(-c2sc3cc4c(cc3c2C#Cc2ccc(N)cc2)OCO4)cc1,> 25 µM (inactive),> 25 µM,> 25 µM,> 25 µM (inactive),> 25 µM,> 25 µM
CC(Sc1nc(NCc2ccccc2)nc(N2CCOCC2)n1)C(=O)Nc1ccccc1 (stereo unspecified),1.44 µM,1.29 µM,1.58 µM,–,> 25 µM,> 25 µM
C[C@@H]1CN([C@@H](C)CO)C(=O)c2cccc(NC(=O)Nc3ccc(F)cc3)c2O[C@@H]1CN(C)Cc1ccc(Oc2ccccc2)cc1,1.42 µM,1.71 µM,1.14 µM,–,> 25 µM,> 25 µM
